The text below walks through data of patent US20030157088A1, “Compositions containing enzymes stabilized with inhibitors having certain binding properties and methods for using such compositions in personal care” (The Proctor & Gamble Company, priority 2001, published 2003).

Where only a bound is given, the exact number is not on record here.

One data set concerns the target subtilisin. Format: biochemical. The conditions noted are these: approximate values; Ki=[E]*[I]/[EI]; read-out: inhibition constant (Ki). The text has this:
Typically a safe and effective amount will range from 0.00005% to 5%, preferably from 0.005% to 2%, more preferably from 0.025% to 1%. Ki values reported herein are approximate values and may be measured, e.g. using the method set forth in “Kinetcs of Subtilisin and Thiolsubtilisin“, Philipp, M. and Bender, M. L., Molecular & Cellular Biochemistry, vol. 51, pages 5-32 (1983). Another suitable method is set forth in “Protease Stabilization by Carboxylic Acid Salts: Relative Efficencies and Mechanisms,” Crossin, Michael C., J.A.O.C.S. vol. 66, no. 7, pages 1010-1014 (July 1989). […] The inhibition constant (Ki) is defined as the concentration of inhibitor required to inhibit an enzyme's activity by 50%, and may be represented as Ki=[E]*[I]/[EI], wherein E is enzyme, I is inhibitor, and EI is enzyme-inhibitor complex.
As usually defined, the Ki is the equilibrium dissociation constant of an inhibitor or competing ligand from its target. In the case of `OB(O)O` [boric acid], the Ki is above 1000 µM.

In the case of `CCCCB(O)O` [butylboronic acid], the Ki turned out to be 7200 µM.

For the compound `CC(=O)N[C@@H](CC(C)C)C(=O)N[C@@H](CC(C)C)C(=O)N[C@H](C=O)CCCNC(=N)N` [leupeptide], the Ki was 230 µM.

For the compound `OB(O)c1ccccc1` [phenylboronic acid], the Ki was 160 µM.

In the case of “Streptomyces subtilisin inhibitor [Streptomyces subtilisin inhibitor (SSI)]”, the Ki was below 0.001 µM.

The subject of another data set is skin. The conditions noted are these: in vivo.
For `CCCCCCCCCCO[C@@H]1O[C@H](CO)[C@@H](O)[C@H](O)[C@H]1O` [Decyl glucoside, decyl glucoside], the “irritation of the skin” value is on record as “not increase irritation of the skin”.
